# Reference: ChEMBL document CHEMBL4004803, “Syntheses and antibacterial activity of soluble 9-bromo substituted indolizinoquinoline-5,12-dione derivatives” (Eur J Med Chem, 2017)
# How the values were obtained:
# [1] = test system: Staphylococcus aureus; experiment: Antibacterial activity against methicillin-resistant Staphylococcus aureus 214026 clinical isolate after 20 to 24 hrs by two-fold microdilution method; format: functional
# [2] = test system: Staphylococcus aureus; experiment: Antibacterial activity against methicillin-resistant Staphylococcus aureus 112106 clinical isolate after 20 to 24 hrs by two-fold microdilution method; format: functional
# [3] = test system: Staphylococcus aureus; experiment: Antibacterial activity against methicillin-resistant Staphylococcus aureus 1012029 clinical isolate after 20 to 24 hrs by two-fold microdilution method; format: functional
# [4] = test system: Staphylococcus aureus; experiment: Antibacterial activity against methicillin-resistant Staphylococcus aureus 221022 clinical isolate after 20 to 24 hrs by two-fold microdilution method; format: functional
# [5] = test system: Staphylococcus aureus; experiment: Antibacterial activity against methicillin-resistant Staphylococcus aureus 110325 clinical isolate after 20 to 24 hrs by two-fold microdilution method; format: functional
# [6] = test system: Staphylococcus aureus; experiment: Antibacterial activity against methicillin-resistant Staphylococcus aureus 831024 clinical isolate after 20 to 24 hrs by two-fold microdilution method; format: functional
# [7] = test system: Staphylococcus aureus; experiment: Antibacterial activity against methicillin-resistant Staphylococcus aureus 1215028 clinical isolate after 20 to 24 hrs by two-fold microdilution method; format: functional
# [8] = test system: Streptococcus pneumoniae; experiment: Antibacterial activity against Streptococcus pneumoniae ATCC 6305 after 20 to 24 hrs by two-fold microdilution method; format: functional
# [9] = test system: Staphylococcus aureus; experiment: Antibacterial activity against methicillin-resistant Staphylococcus aureus 519238 clinical isolate after 20 to 24 hrs by two-fold microdilution method; format: functional
# [10] = Solubility of the compound in water at 25 degC measured after shaking for 4 hrs by UV method; format: physicochemical; conditions: buffer, 4 h
# [11] = test system: Staphylococcus aureus; experiment: Antibacterial activity against methicillin-resistant Staphylococcus aureus 10281-2 clinical isolate after 20 to 24 hrs by two-fold microdilution method; format: functional
# [12] = test system: Staphylococcus aureus; experiment: Antibacterial activity against methicillin-resistant Staphylococcus aureus clinical isolate after 20 to 24 hrs by two-fold microdilution method; format: functional
# [13] = test system: Staphylococcus aureus; experiment: Antibacterial activity against methicillin-resistant Staphylococcus aureus 109016 clinical isolate after 20 to 24 hrs by two-fold microdilution method; format: functional
# [14] = test system: Staphylococcus aureus; experiment: Antibacterial activity against methicillin-resistant Staphylococcus aureus 215073 clinical isolate after 20 to 24 hrs by two-fold microdilution method; format: functional
# [15] = test system: Staphylococcus aureus; experiment: Antibacterial activity against methicillin-resistant Staphylococcus aureus 110432 clinical isolate after 20 to 24 hrs by two-fold microdilution method; format: functional
# [16] = test system: Staphylococcus aureus; experiment: Antibacterial activity against methicillin-resistant Staphylococcus aureus 110328-1 clinical isolate after 20 to 24 hrs by two-fold microdilution method; format: functional
# [17] = test system: Staphylococcus aureus; experiment: Antibacterial activity against methicillin-resistant Staphylococcus aureus 110414 clinical isolate after 20 to 24 hrs by two-fold microdilution method; format: functional
# [18] = test system: Staphylococcus aureus; experiment: Antibacterial activity against methicillin-resistant Staphylococcus aureus 3250299 clinical isolate after 20 to 24 hrs by two-fold microdilution method; format: functional
# [19] = test system: Staphylococcus aureus; experiment: Antibacterial activity against methicillin-resistant Staphylococcus aureus 112430 clinical isolate after 20 to 24 hrs by two-fold microdilution method; format: functional
# [20] = test system: Streptococcus pyogenes; experiment: Antibacterial activity against Streptococcus pyogenes ATCC 19615 after 20 to 24 hrs by two-fold microdilution method; format: functional
# [21] = test system: Staphylococcus aureus; experiment: Antibacterial activity against methicillin-resistant Staphylococcus aureus 504008 clinical isolate after 20 to 24 hrs by two-fold microdilution method; format: functional
# [22] = test system: Staphylococcus aureus; experiment: Antibacterial activity against methicillin-resistant Staphylococcus aureus 20339 clinical isolate after 20 to 24 hrs by two-fold microdilution method; format: functional
# [23] = test system: Staphylococcus aureus; experiment: Antibacterial activity against methicillin-resistant Staphylococcus aureus 11703 clinical isolate after 20 to 24 hrs by two-fold microdilution method; format: functional
# [24] = test system: Staphylococcus aureus; experiment: Antibacterial activity against methicillin-resistant Staphylococcus aureus 19950 clinical isolate after 20 to 24 hrs by two-fold microdilution method; format: functional
# [25] = test system: Staphylococcus aureus; experiment: Antibacterial activity against methicillin-resistant Staphylococcus aureus 1024010 clinical isolate after 20 to 24 hrs by two-fold microdilution method; format: functional
# [26] = test system: Staphylococcus aureus; experiment: Antibacterial activity against methicillin-resistant Staphylococcus aureus 502025 clinical isolate after 20 to 24 hrs by two-fold microdilution method; format: functional
# [27] = test system: Staphylococcus aureus; experiment: Antibacterial activity against methicillin-resistant Staphylococcus aureus 531220 clinical isolate after 20 to 24 hrs by two-fold microdilution method; format: functional
# [28] = test system: Staphylococcus aureus; experiment: Antibacterial activity against methicillin-resistant Staphylococcus aureus 121969 clinical isolate after 20 to 24 hrs by two-fold microdilution method; format: functional
# [29] = test system: Staphylococcus aureus; experiment: Antibacterial activity against methicillin-resistant Staphylococcus aureus 523005 clinical isolate after 20 to 24 hrs by two-fold microdilution method; format: functional
# [30] = test system: Staphylococcus aureus; experiment: Antibacterial activity against methicillin-resistant Staphylococcus aureus 216054 clinical isolate after 20 to 24 hrs by two-fold microdilution method; format: functional
# [31] = test system: Staphylococcus aureus; experiment: Antibacterial activity against methicillin-resistant Staphylococcus aureus 822030 clinical isolate after 20 to 24 hrs by two-fold microdilution method; format: functional
# [32] = test system: Staphylococcus aureus; experiment: Antibacterial activity against methicillin-resistant Staphylococcus aureus 111625 clinical isolate after 20 to 24 hrs by two-fold microdilution method; format: functional
# [33] = test system: Staphylococcus aureus; experiment: Antibacterial activity against methicillin-resistant Staphylococcus aureus 530231 clinical isolate after 20 to 24 hrs by two-fold microdilution method; format: functional
# [34] = test system: Staphylococcus aureus; experiment: Antibacterial activity against methicillin-resistant Staphylococcus aureus 102849 clinical isolate after 20 to 24 hrs by two-fold microdilution method; format: functional
# [35] = test system: Staphylococcus aureus; experiment: Antibacterial activity against methicillin-resistant Staphylococcus aureus 919205 clinical isolate after 20 to 24 hrs by two-fold microdilution method; format: functional
# [36] = test system: Staphylococcus aureus; experiment: Antibacterial activity against methicillin-resistant Staphylococcus aureus 1113041 clinical isolate after 20 to 24 hrs by two-fold microdilution method; format: functional
# [37] = test system: Staphylococcus aureus; experiment: Antibacterial activity against methicillin-resistant Staphylococcus aureus 1101016 clinical isolate after 20 to 24 hrs by two-fold microdilution method; format: functional
# [38] = test system: Staphylococcus aureus; experiment: Antibacterial activity against methicillin-resistant Staphylococcus aureus 414244 clinical isolate after 20 to 24 hrs by two-fold microdilution method; format: functional
# [39] = test system: Enterococcus faecalis; experiment: Antibacterial activity against Enterococcus faecalis ATCC 29212 after 20 to 24 hrs by two-fold microdilution method; format: functional
# [40] = test system: Staphylococcus aureus; experiment: Antibacterial activity against methicillin-resistant Staphylococcus aureus 109244 clinical isolate after 20 to 24 hrs by two-fold microdilution method; format: functional
# [41] = test system: Staphylococcus aureus; experiment: Antibacterial activity against methicillin-resistant Staphylococcus aureus 30116-1 clinical isolate after 20 to 24 hrs by two-fold microdilution method; format: functional
# [42] = test system: Staphylococcus aureus; experiment: Antibacterial activity against methicillin-resistant Staphylococcus aureus 110910-2 clinical isolate after 20 to 24 hrs by two-fold microdilution method; format: functional
# [43] = test system: Staphylococcus aureus; experiment: Antibacterial activity against methicillin-resistant Staphylococcus aureus 1106003 clinical isolate after 20 to 24 hrs by two-fold microdilution method; format: functional
# [44] = test system: Staphylococcus aureus; experiment: Antibacterial activity against methicillin-resistant Staphylococcus aureus 921026 clinical isolate after 20 to 24 hrs by two-fold microdilution method; format: functional
# [45] = test system: Staphylococcus aureus; experiment: Antibacterial activity against methicillin-resistant Staphylococcus aureus 20106-2 clinical isolate after 20 to 24 hrs by two-fold microdilution method; format: functional
# [46] = test system: Staphylococcus aureus; experiment: Antibacterial activity against methicillin-resistant Staphylococcus aureus 131215 clinical isolate after 20 to 24 hrs by two-fold microdilution method; format: functional
# [47] = test system: Staphylococcus aureus; experiment: Antibacterial activity against methicillin-resistant Staphylococcus aureus 121026 clinical isolate after 20 to 24 hrs by two-fold microdilution method; format: functional
smiles,measurement,setting,value
O=C1c2cccnc2C(=O)c2c1c(C(=O)OCCCCCN1CCOCC1)c1ccc(Br)cn21,MIC,[1],0.063 µg/mL
same,MIC,[2],0.031 µg/mL
same,MIC,[3],≤ 0.0078 µg/mL
same,MIC,[4],0.031 µg/mL
same,MIC,[5],≤ 0.0078 µg/mL
same,MIC,[6],0.063 µg/mL
same,MIC,[7],≤ 0.0078 µg/mL
same,MIC,[8],2 µg/mL
same,MIC,[9],0.125 µg/mL
same,solubility,[10],Insoluble
same,MIC,[11],≤ 0.0078 µg/mL
same,MIC50,[12],0.031 µg/mL
same,MIC90,[12],0.125 µg/mL
same,MIC,[13],≤ 0.0078 µg/mL
same,MIC,[14],≤ 0.0078 µg/mL
same,MIC,[15],≤ 0.0078 µg/mL
same,MIC,[16],0.031 µg/mL
same,MIC,[17],0.031 µg/mL
same,MIC,[18],0.031 µg/mL
same,MIC,[19],≤ 0.0078 µg/mL
same,MIC,[20],8 µg/mL
same,MIC,[21],0.063 µg/mL
same,MIC,[22],0.063 µg/mL
same,MIC,[23],0.063 µg/mL
same,MIC,[24],0.031 µg/mL
same,MIC,[25],0.031 µg/mL
same,MIC,[26],0.125 µg/mL
same,MIC,[27],≤ 0.0078 µg/mL
same,MIC,[28],0.063 µg/mL
same,MIC,[29],0.031 µg/mL
same,MIC,[30],0.063 µg/mL
same,MIC,[31],0.031 µg/mL
same,MIC,[32],≤ 0.0078 µg/mL
same,MIC,[33],0.031 µg/mL
same,MIC,[34],0.063 µg/mL
same,MIC,[35],0.016 µg/mL
same,MIC,[36],≤ 0.0078 µg/mL
same,MIC,[37],0.031 µg/mL
same,MIC,[38],0.063 µg/mL
same,MIC,[39],0.25 µg/mL
same,MIC,[40],0.031 µg/mL
same,MIC,[41],≤ 0.0078 µg/mL
same,MIC,[42],≤ 0.0078 µg/mL
same,MIC,[43],16 µg/mL
same,MIC,[44],≤ 0.0078 µg/mL
same,MIC,[45],0.125 µg/mL
same,MIC,[46],0.016 µg/mL
same,MIC,[47],≤ 0.0078 µg/mL
